From patent US20250230165A1, “HETEROCYCLIC COMPOUNDS FOR USE IN THE TREATMENT OF CANCER” (ARTIOS PHARMA LIMITED, priority 2021, published 2025)
Where a name gives a salt, the structure may show the parent alone.

biological target: T1, Human Polθ polymerase domain (aa1820-2590) (Homo sapiens, UniProt O75417); assay: Polθ Polymerase Domain Kinact/KI Assay (PicoGreen); assay type: biochemical; conditions: 0.8 nM Polθ, 100 nM DNA substrate, kobs vs [I] fit for 2-step covalent inhibitor
T1 construct: Human Polθ polymerase domain (aa1820-2590) was expressed in E. coli; made in house; host or cells: E. coli
T1 sequence (O75417 1820-2590): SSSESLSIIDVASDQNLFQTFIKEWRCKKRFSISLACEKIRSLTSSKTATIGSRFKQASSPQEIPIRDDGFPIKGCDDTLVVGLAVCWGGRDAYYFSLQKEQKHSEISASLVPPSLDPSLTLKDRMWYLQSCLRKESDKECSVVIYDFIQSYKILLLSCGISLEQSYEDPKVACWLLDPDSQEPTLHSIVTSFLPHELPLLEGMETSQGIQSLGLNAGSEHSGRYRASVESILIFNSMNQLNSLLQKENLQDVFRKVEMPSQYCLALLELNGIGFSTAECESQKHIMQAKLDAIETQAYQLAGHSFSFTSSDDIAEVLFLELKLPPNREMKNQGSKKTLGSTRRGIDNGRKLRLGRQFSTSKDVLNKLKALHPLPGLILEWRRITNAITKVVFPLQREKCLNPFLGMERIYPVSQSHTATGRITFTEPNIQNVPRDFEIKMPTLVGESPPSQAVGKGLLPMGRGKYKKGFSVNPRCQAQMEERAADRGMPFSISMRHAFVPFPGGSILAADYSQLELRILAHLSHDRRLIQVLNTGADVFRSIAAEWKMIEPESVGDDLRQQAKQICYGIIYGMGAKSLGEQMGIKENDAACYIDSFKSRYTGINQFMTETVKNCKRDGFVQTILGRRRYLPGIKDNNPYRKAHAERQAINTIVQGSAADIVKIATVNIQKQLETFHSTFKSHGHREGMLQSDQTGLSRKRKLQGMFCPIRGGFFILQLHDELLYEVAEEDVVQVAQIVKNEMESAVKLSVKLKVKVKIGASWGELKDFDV
Summary of the method: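 Kinact and KI derive from fitting kobs versus [I], where kobs were fitted from EDTA-stopped PicoGreen time courses (up to 60 min) in Tris pH 7.5 buffer with 1% DMSO, 0.8 nM enzyme, 100 nM DNA and […].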

SMILES | Kinact/Kl [M⁻¹ s⁻¹]
C=CC(=O)N1CC2CN(CCN3C[C@H]4CC(=O)N(c5cc(C(F)(F)F)cc(C)n5)[C@@H]4C(=O)N(C)c4cccc(F)c43)CC(C1)O2 [Example 5, (3aR,11aS)-5-(2-(7-acryloyl-9-oxa-3,7-diazabicyclo[3.3.1]nonan-3-yl)ethyl)-6-fluoro-10-methyl-1-(6-methyl-4-(trifluoromethyl)pyridin-2-yl)-1,3a,4,5,10,11a-hexahydro-2H-benzo[b]pyrrolo[2,3-f][1,4]diazocine-2,11(3H)-dione] | 140000
C=CC(=O)N1CC2(CN(CCN3C[C@H]4CC(=O)N(c5cc(C(F)(F)F)cc(C)n5)[C@@H]4C(=O)N(C)c4cccc(F)c43)C[C@@H](COC)N2)C1 [Example 6, (3aR,11aS)-5-(2-((S)-2-acryloyl-6-(methoxymethyl)-2,5,8-triazaspiro[3.5]nonan-8-yl)ethyl)-6-fluoro-10-methyl-1-(6-methyl-4-(trifluoromethyl)pyridin-2-yl)-1,3a,4,5,10,11a-hexahydro-2H-benzo[b]pyrrolo[2,3-f][1,4]diazocine-2,11(3H)-dione] | 540000
C=CC(=O)N1CC2(CN(CCN3C[C@H]4CC(=O)N(c5cc(C(F)(F)F)cc(C)n5)[C@@H]4C(=O)N(C)c4cccc(Cl)c43)C[C@@H](C)N2)C1 [Example 13, (3aR,11aS)-5-(2-((R)-2-acryloyl-6-methyl-2,5,8-triazaspiro[3.5]nonan-8-yl)ethyl)-6-chloro-10-methyl-1-(6-methyl-4-(trifluoromethyl)pyridin-2-yl)-1,3a,4,5,10,11a-hexahydro-2H-benzo[b]pyrrolo[2,3-f][1,4]diazocine-2,11(3H)-dione] | 1.26e+06
C=CC(=O)N1CC(N2CCN(CCN3C[C@H]4CC(=O)N(c5cc(C(F)(F)F)cc(C)n5)[C@@H]4C(=O)N(C)c4cc(F)cc(C5CC5)c43)CC2)C1 [Example 19, (3aR,11aS)-5-(2-(4-(1-acryloylazetidin-3-yl)piperazin-1-yl)ethyl)-6-cyclopropyl-8-fluoro-10-methyl-1-(6-methyl-4-(trifluoromethyl)pyridin-2-yl)-1,3a,4,5,10,11a-hexahydro-2H-benzo[b]pyrrolo[2,3-f][1,4]diazocine-2,11(3H)-dione] | 350000
Cc1cc(C(F)(F)F)cc(N2C(=O)C[C@@H]3CN(CCN4CCOC5(C4)CN(C(=O)/C=C/CN(C)C)C5)c4c(F)cccc4N(C)C(=O)[C@H]32)n1 [Example 27, (3aR,11aS)-5-(2-(2-((E)-4-(dimethylamino)but-2-enoyl)-5-oxa-2,8-diazaspiro[3.5]nonan-8-yl)ethyl)-6-fluoro-10-methyl-1-(6-methyl-4-(trifluoromethyl)pyridin-2-yl)-1,3a,4,5,10,11a-hexahydro-2H-benzo[b]pyrrolo[2,3-f][1,4]diazocine-2,11(3H)-dione Hydrochloride] | 1.05e+06
C=CC(=O)N1CC(N2CCN(CCN3C[C@H]4CC(=O)N(c5cc(C(F)(F)F)cc(C)n5)[C@@H]4C(=O)N(C)c4cccc(F)c43)C[C@@H]2CF)C1 [Example 28, (3aR,11aS)-5-(2-((R)-4-(1-acryloylazetidin-3-yl)-3-(fluoromethyl)piperazin-1-yl)ethyl)-6-fluoro-10-methyl-1-(6-methyl-4-(trifluoromethyl)pyridin-2-yl)-1,3a,4,5,10,11a-hexahydro-2H-benzo[b]pyrrolo[2,3-f][1,4]diazocine-2,11(3H)-dione] | 350000
C=CC(=O)N1CC2(CN(CCN3C[C@H]4CC(=O)N(c5cc(C(F)(F)F)cc(C)n5)[C@@H]4C(=O)N(C)c4cccc(F)c43)CCN2)C1 [Example 30, (3aR,11aS)-5-(2-(2-acryloyl-2,5,8-triazaspiro[3.5]nonan-8-yl)ethyl)-6-fluoro-10-methyl-1-(6-methyl-4-(trifluoromethyl)pyridin-2-yl)-1,3a,4,5,10,11a-hexahydro-2H-benzo[b]pyrrolo[2,3-f][1,4]diazocine-2,11(3H)-dione] | 690000
C=CC(=O)N1CC2(CN(CCN3C[C@H]4CC(=O)N(c5cc(C(F)(F)F)cc(C)n5)[C@@H]4C(=O)N(C)c4cccc(F)c43)C[C@@H](C)N2)C1 [Example 31, (3aR,11aS)-5-(2-((R)-2-acryloyl-6-methyl-2,5,8-triazaspiro[3.5]nonan-8-yl)ethyl)-6-fluoro-10-methyl-1-(6-methyl-4-(trifluoromethyl)pyridin-2-yl)-1,3a,4,5,10, 11a-hexahydro-2H-benzo [b]pyrrolo[2,3-f][1,4] diazocine-2,11(3H)-dione] | 1.13e+06

More lines, now with the values ahead:

Kinact/Kl [M⁻¹ s⁻¹] | SMILES
1.71e+06 | C=CC(=O)N1CC(N2CCN(CCN3C[C@H]4CC(=O)N(c5cc(C(F)(F)F)cc(C)n5)[C@@H]4C(=O)N(C)c4cccc(Cl)c43)CC2)C1 [Example 12, (3aR,11aS)-5-(2-(4-(1-acryloylazetidin-3-yl)piperazin-1-yl)ethyl)-6-chloro-10-methyl-1-(6-methyl-4-(trifluoromethyl)pyridin-2-yl)-1,3a,4,5,10,11a-hexahydro-2H-benzo[b]pyrrolo[2,3-f][1,4]diazocine-2,11(3H)-dione]
2.05e+06 | C=CC(=O)N1CCN2CCN(CCN3C[C@H]4CC(=O)N(c5cc(C(F)(F)F)cc(C)n5)[C@@H]4C(=O)N(C)c4cccc(Cl)c43)CC2C1 (stereo partly drawn) [Example 14, (3aR,11aS)-5-(2-(8-acryloyloctahydro-2H-pyrazino[1,2-a]pyrazin-2-yl)ethyl)-6-chloro-10-methyl-1-(6-methyl-4-(trifluoromethyl)pyridin-2-yl)-1,3a,4,5,10,11a-hexahydro-2H-benzo[b]pyrrolo[2,3-f][1,4]diazocine-2,11(3H)-dione]
73000 | C=CC(=O)N1CC(N2CCN(CCN3C[C@H]4CC(=O)N(c5cc(C(F)(F)F)cc(C)n5)[C@@H]4C(=O)N(C)c4cc(F)ccc43)CC2)C1 [Example 15, (3aR,11aS)-5-(2-(4-(1-acryloylazetidin-3-yl)piperazin-1-yl)ethyl)-8-fluoro-10-methyl-1-(6-methyl-4-(trifluoromethyl)pyridin-2-yl)-1,3a,4,5,10,11a-hexahydro-2H-benzo[b]pyrrolo[2,3-f][1,4]diazocine-2,11(3H)-dione]
130000 | C=CC(=O)N1CC(N2CCN(CCN3C[C@H]4CC(=O)N(c5cc(C(F)(F)F)cc(C)n5)[C@@H]4C(=O)N(C)c4cc(F)cc(F)c43)CC2)C1 [Example 16, (3aR,11aS)-5-(2-(4-(1-acryloylazetidin-3-yl)piperazin-1-yl)ethyl)-6,8-difluoro-10-methyl-1-(6-methyl-4-(trifluoromethyl)pyridin-2-yl)-1,3a,4,5,10,11a-hexahydro-2H-benzo[b]pyrrolo[2,3-f][1,4]diazocine-2,11(3H)-dione]
1.19e+06 | C=CC(=O)N1CC(N2CCN(CCN3C[C@H]4CC(=O)N(c5cc(C(F)(F)F)cc(C)n5)[C@@H]4C(=O)N(C)c4cc(F)cc(Cl)c43)CC2)C1 [Example 17, (3aR,11aS)-5-(2-(4-(1-acryloylazetidin-3-yl)piperazin-1-yl)ethyl)-6-chloro-8-fluoro-10-methyl-1-(6-methyl-4-(trifluoromethyl)pyridin-2-yl)-1,3a,4,5,10,11a-hexahydro-2H-benzo[b]pyrrolo[2,3-f][1,4]diazocine-2,11(3H)-dione]
1.18e+06 | C=CC(=O)N1CC(N2CCN(CCN3C[C@H]4CC(=O)N(c5cc(C(F)(F)F)cc(C)n5)[C@@H]4C(=O)N(C)c4cc(F)cc(C)c43)CC2)C1 [Example 18, (3aR,11aS)-5-(2-(4-(1-acryloylazetidin-3-yl)piperazin-1-yl)ethyl)-8-fluoro-6,10-dimethyl-1-(6-methyl-4-(trifluoromethyl)pyridin-2-yl)-1,3a,4,5,10,11a-hexahydro-2H-benzo[b]pyrrolo[2,3-f][1,4]diazocine-2,11(3H)-dione]
1.12e+06 | C=CC(=O)N1CC(N2CCN(CCN3C[C@H]4CC(=O)N(c5cc(C(F)(F)F)cc(C)n5)[C@@H]4C(=O)N(C)c4c(F)c(F)cc(Cl)c43)CC2)C1 [Example 20, (3aR,11aS)-5-(2-(4-(1-acryloylazetidin-3-yl)piperazin-1-yl)ethyl)-6-chloro-8,9-difluoro-10-methyl-1-(6-methyl-4-(trifluoromethyl)pyridin-2-yl)-1,3a,4,5,10,11a-hexahydro-2H-benzo[b]pyrrolo[2,3-f][1,4]diazocine-2,11(3H)-dione]
320000 | C=CC(=O)N1CC(N2CCN(CCN3C[C@H]4CC(=O)N(c5cc(C(F)(F)F)cc(C)n5)[C@@H]4C(=O)N(C)c4cccc(F)c43)C[C@H](F)C2)C1 [Example 29, (3aR,11aS)-5-(2-((S)-4-(1-acryloylazetidin-3-yl)-6-fluoro-1,4-diazepan-1-yl)ethyl)-6-fluoro-10-methyl-1-(6-methyl-4-(trifluoromethyl)pyridin-2-yl)-1,3a,4,5,10,11a-hexahydro-2H-benzo[b]pyrrolo[2,3-f][1,4]diazocine-2,11(3H)-dione]
